Marks after values point to notes of the source that are not given here.
Tests used:
[1] = General toxicity and tolerability on animals; type: in vivo
Experimental: Research of antiplatelet properties of the compound I, its effect on the activity of soluble guanylate cyclase and NO generation was performed by experimentation in vitro, its ability to exert hypotensive and antihypertensive action was studied on animals. General toxicity and tolerability of the compound of formula I were studied on animals.

non-narcotized SHT rats = assay: Blood pressure in non-narcotized SHT rats, intragastric administration (non-invasive BP measurement); type: in vivo, rat
Experimental: In experiments on non-narcotized SHT rats intragastric administration of the compound of formula I has caused dose-dependent reduction of BP, the duration of which was increased correspondingly with dose increase (maximal duration of effect 5 hours after single administration of 50 mg/kg dose, Table 3).

[2] = test system: pressor effect of noradrenaline; assay: Pressor effect of noradrenaline after intravenous administration in normotensive narcotized rats; type: in vivo, rat
Experimental: (§1) The experiments were performed on spontaneously hypertensive (SHT) and normotensive (NT) narcotized male rats using intravenous administration of the tested compounds. The ability of the compound to reduce arterial blood pressure (BP) in SHT rats and prevent spasmogenic reactions to noradrenalin (NA) and angiotensin I (AI).
(§2) The effects of the compound of formula I on the pressor effects of noradrenaline (NA, 10-15 μg/kg), mesatonum (M, 5 μg/kg) and angiotensin (AI, 5 μg/kg) were studied on normotensive narcotized […]. Antihypertensive action of the compound of formula I was assessed relative to the pressor effects of the control administration of the aforementioned compounds.

[3] = Cumulation after 28 days administration; type: in vivo
Excerpt: Acute toxicity of the compound in mice in internal administration is 8.9±0.75 g/kg, cumulation after 28 days administration is weak (lethality less than 50%).

[4] = test system: ADP-induced platelet aggregation; assay: ADP-induced platelet aggregation following intravenous administration in rabbits; type: in vivo, rabbit
Experimental: FIG. 1 is a graph showing the effect of the compound I and sodium nitroprusside on ADP-induced platelet aggregation following intravenous administration in rabbits (% compared to control).
(§3) Antiplatelet activity was assessed by the effect of the compound on platelet aggregation of rabbit blood plasma, induced by ADP (adenosine diphosphate) and arachidonic acid. Platelet aggregation was assessed by the change of optical density of plasma. Studies were performed using both intravenous administration, in comparison with sodium nitroprusside, and oral administration, in comparison with acetylsalicylic acid. Compound I was used in concentrations of 10^−3-10^−7 M (parenteral administration) and in 4-8 and 12 mg/kg doses (oral administration).
In order to make a final conclusion on the ability of the studied compound to inhibit platelet aggregation experiments were performed in conditions of living organism using intravenous and oral administration.
Compound I and sodium nitroprusside (a reference drug) have both inhibited the process of platelet aggregation. However, there were considerable quantitative and temporal differences in their effects. […] This was the only time point where we managed to observe its activity. After 1 hour the effect disappeared.

[5] = test system: pressor effect of angiotensin I; assay: Pressor effect of angiotensin I after intravenous administration in normotensive narcotized rats; type: in vivo, rat
Experimental: as §1, §2

[6] = test system: pressor action of mesatonum; assay: Pressor effect of mesatonum in normotensive narcotized animals; type: in vivo; settings: doses 0.01-1.0 mg/kg; mesatonum 5 μg/kg
Experimental: as §2

rat hemostasis = assay: Model of parenchymal hemorrhage (bleeding time) after oral administration; type: in vivo
Experimental: The model of parenchymal hemorrhage characterizes hemostasis through the stimulation of coagulation cascade. Usually, it is rather difficult to obtain considerable change of bleeding time in these models with resorptive-acting compounds. Direct-action anticoagulants (heparin, heparinoids) prolong bleeding time in these models only in high doses, while the effect is detected at different time (up to 3 hours after the administration). Indirect-action […] drugs (oxycoumarines, indandiones, etc.) usually begin to increase bleeding after a certain delay period (12-48 hours after the administration), which is easily explainable by the modern understanding of their mechanism of action: they stop the biosynthesis of blood clotting plasma factors II, VII, IX, X, while the duration of delay period is determined by the amount of these factors, produced in the liver before the administration of vitamin K reductase inhibitors (oxycoumarines, indandiones).
The duration of parenchymal hemorrhage in the control group was 88.9±1.2 s. Test groups of animals used in the experiments 60 minutes after oral administration of the compound of formula I. After the administration of 8 mg/kg dose the duration of parenchymal hemorrhage in test group increased by 71% compared to original condition, it further increased to 220.6±3.4 s after another hour.

[7] = test system: ADP-induced platelet aggregation; assay: ADP-induced platelet aggregation following peroral administration in rabbits; type: in vivo, rabbit
Experimental: FIG. 2 is a graph showing the changes in platelet functional activity following peroral administration of the compound I in a model of ADP-induced aggregation in rabbits (% compared to control).
as §3

## CN1CC(CO)O/C1=C(C#N)/C=C1/Nc2ccccc2C1=O (stereo not shown) [Compound I, 2-[2-Cyano-2-[5-(hydroxymethyl)-3-methyl-1,3-oxazolidin-2-ylidene]ethylidene]indolin-3-one]
[1]
  General toxicity and tolerability: non-toxic, well tolerated
[1]; relatively high doses
  Neurotoxicity: does not exhibit neurotoxicity
non-narcotized SHT rats; 1 mg/kg orally, time column 1 (hours), 1 h after dosing
  Reduction of BP, mmHg: 20* mmHg
non-narcotized SHT rats; 1 mg/kg orally, time column 2, 2 h after dosing
  Reduction of BP, mmHg: 10 mmHg
non-narcotized SHT rats; 1 mg/kg orally, time column 3, 0 - absence of effect, 3 h after dosing
  Reduction of BP, mmHg: 0 mmHg
non-narcotized SHT rats; 1 mg/kg orally, time column 4, 0 - absence of effect, 4 h after dosing
  Reduction of BP, mmHg: 0 mmHg
non-narcotized SHT rats; 1 mg/kg orally, time column 5, 0 - absence of effect, 5 h after dosing
  Reduction of BP, mmHg: 0 mmHg
non-narcotized SHT rats; 1 mg/kg orally, time column 6, 0 - absence of effect, 6 h after dosing
  Reduction of BP, mmHg: 0 mmHg
non-narcotized SHT rats; 5 mg/kg orally, time column 1, 1 h after dosing
  Reduction of BP, mmHg: 17* mmHg
non-narcotized SHT rats; 5 mg/kg orally, time column 2, 2 h after dosing
  Reduction of BP, mmHg: 20* mmHg
non-narcotized SHT rats; 5 mg/kg orally, time column 3, 3 h after dosing
  Reduction of BP, mmHg: 32* mmHg
non-narcotized SHT rats; 5 mg/kg orally, time column 4, 4 h after dosing
  Reduction of BP, mmHg: 30* mmHg
non-narcotized SHT rats; 5 mg/kg orally, time column 5, 5 h after dosing
  Reduction of BP, mmHg: 15 mmHg
non-narcotized SHT rats; 5 mg/kg orally, time column 6, 0 - absence of effect, 6 h after dosing
  Reduction of BP, mmHg: 0 mmHg
non-narcotized SHT rats; 10 mg/kg orally, time column 1, 0 - absence of effect, 1 h after dosing
  Reduction of BP, mmHg: 23* mmHg
non-narcotized SHT rats; 10 mg/kg orally, time column 2, 0 - absence of effect, 2 h after dosing
  Reduction of BP, mmHg: 30* mmHg
non-narcotized SHT rats; 10 mg/kg orally, time column 3, 0 - absence of effect, 3 h after dosing
  Reduction of BP, mmHg: 37 mmHg
non-narcotized SHT rats; 10 mg/kg orally, time column 4, 0 - absence of effect, 4 h after dosing
  Reduction of BP, mmHg: 35 mmHg
non-narcotized SHT rats; 10 mg/kg orally, time column 5, 0 - absence of effect, 5 h after dosing
  Reduction of BP, mmHg: 17* mmHg
non-narcotized SHT rats; 10 mg/kg orally, time column 6, 0 - absence of effect, 6 h after dosing
  Reduction of BP, mmHg: 0 mmHg
non-narcotized SHT rats; 25 mg/kg orally, time column 1, 1 h after dosing
  Reduction of BP, mmHg: 26* mmHg
non-narcotized SHT rats; 25 mg/kg orally, time column 2, 2 h after dosing
  Reduction of BP, mmHg: 32* mmHg
non-narcotized SHT rats; 25 mg/kg orally, time column 3, 3 h after dosing
  Reduction of BP, mmHg: 45* mmHg
non-narcotized SHT rats; 25 mg/kg orally, time column 4, 4 h after dosing
  Reduction of BP, mmHg: 45* mmHg
non-narcotized SHT rats; 25 mg/kg orally, time column 5, 5 h after dosing
  Reduction of BP, mmHg: 25* mmHg
non-narcotized SHT rats; 25 mg/kg orally, time column 6, 0 - absence of effect, 6 h after dosing
  Reduction of BP, mmHg: 0 mmHg
non-narcotized SHT rats; 50 mg/kg orally, time column 1, 1 h after dosing
  Reduction of BP, mmHg: 25* mmHg
non-narcotized SHT rats; 50 mg/kg orally, time column 2, 2 h after dosing
  Reduction of BP, mmHg: 42* mmHg
non-narcotized SHT rats; 50 mg/kg orally, time column 3, 3 h after dosing
  Reduction of BP, mmHg: 50* mmHg
non-narcotized SHT rats; 50 mg/kg orally, time column 4, 4 h after dosing
  Reduction of BP, mmHg: 50* mmHg
non-narcotized SHT rats; 50 mg/kg orally, time column 5, 5 h after dosing
  Reduction of BP, mmHg: 25* mmHg
non-narcotized SHT rats; 50 mg/kg orally, time column 6, 0 - absence of effect, 6 h after dosing
  Reduction of BP, mmHg: 0 mmHg
non-narcotized SHT rats; single intragastric administration of 50 mg/kg dose
  Maximal duration of BP-reducing effect: 5 h
[2]; 0.01 mg/kg intravenous
  Inhibition of pressor reaction (%) induced by Noradrenaline: 25%
[2]; 0.05 mg/kg intravenous
  Inhibition of pressor reaction (%) induced by Noradrenaline: 35%
[2]; 0.1 mg/kg intravenous
  Inhibition of pressor reaction (%) induced by Noradrenaline: 50%
[2]; 0.5 mg/kg intravenous
  Inhibition of pressor reaction (%) induced by Noradrenaline: 60%
[2]; 1.0 mg/kg intravenous
  Inhibition of pressor reaction (%) induced by Noradrenaline: 55-60%
[3]
  Lethality: less than 50%
[4]; intravenous administration to rabbits
  Inhibition of induced functional activity of platelets compared with sodium nitroprusside: as potent as that of sodium nitroprusside, but persists for a longer time
[4]; intravenous, rabbits
  Time at which inhibition of platelet aggregation stopped/disappeared: 3 h
  Time of maximal potency of inhibition of platelet aggregation: 60 min
[5]; 0.01 mg/kg intravenous, 0 - absence of effect
  Inhibition of pressor reaction (%) induced by Angiotensin I: 0%
[5]; 0.05 mg/kg intravenous
  Inhibition of pressor reaction (%) induced by Angiotensin I: 10%
[5]; 0.1 mg/kg intravenous, listed as Compound of formula I
  Inhibition of pressor reaction (%) induced by Angiotensin I: 25-30%
[5]; 0.1 mg/kg intravenous, listed as compound of formula I
  Inhibition of pressor reaction (%) induced by Angiotensin I: 25%
[5]; 0.5 mg/kg intravenous, 0 - absence of effect
  Inhibition of pressor reaction (%) induced by Angiotensin I: 30%
[5]; 1.0 mg/kg intravenous
  Inhibition of pressor reaction (%) induced by Angiotensin I: 30-40%
[6]
  Effect on the pressor action of M (mesatonum): does not significantly affect
Rat hemostasis; 8 mg/kg oral, 60 minutes after administration
  Increase of duration of parenchymal hemorrhage compared to original condition: 71%
Rat hemostasis; 8 mg/kg oral, after another hour (control 88.9±1.2 s)
  Duration of parenchymal hemorrhage: 220.6 ± 3.4 s
Rat hemostasis; 8 mg/kg oral, end of experiment (240 min)
  Duration of parenchymal hemorrhage vs control: did not differ from the control group
Rat hemostasis; 16 mg/kg oral, first 60 min of the observation
  Duration of bleeding: increased twofold
Rat hemostasis; rat, in vivo
  Effect on rat hemostasis in the model of parenchymal hemorrhage: statistically significantly slows down rat hemostasis
[7]; enteral administration
  Duration of effect on ADP-induced aggregation: about 3 hours
[7]; peroral, rabbits, after 2 hours
  Inhibition of ADP-induced aggregation (maximal potency): 40%
[7]; peroral, rabbits, after the first hour
  Inhibition of ADP-induced aggregation: 30%
[7]; peroral, rabbits, persisting for all 4 hours of observation
  Inhibition of ADP-induced aggregation (as a tendency): 15-25%
